Measurements published in patent publication US10189860B2, “Hydrates of dolutegravir sodium” (LEK PHARMACEUTICALS D.D., priority 2014, dated 2019).
Values joined by “and” are separate entries in the source; they are usually repeats but may differ in a detail not shown here. Identical values can stand only once. “Also recorded” adds a separate entry of the source.

What was measured:
[1] = Particle morphology by scanning electron micrograph; format: physicochemical; conditions: SEM
From the text: A figure of the morphology of Form I and form HxA is depicted in FIG. 13 (Form I) and 14 (form HxA), at different magnifications (500× magnification (Form I), 1.500× magnification (Form I and form HxA), and 5.000× magnification (form HxA)).

[2] = Compressibility testing of API (bulk/tapped volume, compressibility index); format: physicochemical; conditions: API batches; for Compressibility index: (Vb−Vt)/Vb; for Flow character according to PhEur: PhEur Chapter 2.9.36 Powder flow
Description: As described in Example 8 herein above, the sodium salt of dolutegravir was prepared in two polymorphic forms (Form I and form HxA). […] Compressibilty index is an indirect measure of different powder properties such as size, shape, surface area, cohesiveness etc. (PhEur). Bulk (Vb) and tapped (Vt) volume were measured for several batches of both forms and the compressibilty index (%) is determined based on Vb and Vt. 250 mL volumetric cylinder with test samples weight approximately 25 g were used. The compressibility index was calculated according to formula ((Vb−Vt)/Vb).

[3] = API particle size by laser diffraction
[4] = Gravimetric moisture sorption/desorption (GMSD) experiments; format: physicochemical; conditions: 25±0.1° C.
Description: Comparative gravimetric moisture sorption/desorption experiments at 25±0.1° C. were conducted with dolutegravir sodium monohydrate of WO 2010/068253 A1 and the hydrates of the present invention designated form HxA and form Hy1B.
The water values at varying relative humidities were obtained by recording moisture sorption/desorption isotherms with a SPS-11 moisture sorption analyzer (MD Messtechnik, Ulm, D). The samples were weighed into Teflon sample holders. […] The equilibrium condition for each step was set to a mass constancy of ±0.005% over 60 min. The temperature was 25±0.1° C. The water content of the samples was determined after the moisture sorption/desorption experiments with a TGA 7 system (Perkin Elmer, Norwalk, Conn., USA) using the Pyris 2.0 software. The samples were weighed into Al pans (50 μL). Dry nitrogen was used as purge gas (purge rate: 20 mL/min). The samples were heated from 25 to 200° C. using a heating rate of 10° C./min.

[5] = listed as dolutegravir sodium monohydrate of WO 2010/068253 A1
[6] = 95% RH, listed as dolutegravir sodium monohydrate of WO 2010/068253 A1

Compound	morphology of particles [1]	Bulk volume [2]	Tapped volume [2]	Compressibility index [2]	Flow character according to PhEur [2]	d0.1 [3] [μm]	d0.5 [3] [μm]	d0.9 [3] [μm]	Remarks: hysteresis between sorption and desorption isotherms [4]	Δm sorption [0-90% RH] [4]	Δm sorption [30-90% RH] [4]	Remarks: stable at / preserves crystal structure (RH range) [4]	also measured
C[C@@H]1CCO[C@H]2Cn3cc(C(=O)NCc4ccc(F)cc4F)c(=O)c([O-])c3C(=O)N12.[Na+] [Form I, reference compound]	long needle like crystals	5.55 mL/g and 7.00 mL/g and 4.89 mL/g	3.79 mL/g and 4.56 mL/g and 3.23 mL/g	32% and 35% and 34%	Very poor	3.5	10	40	–	–	–	–	needle lengths [1]: ≤ 70 μm
C[C@@H]1CCO[C@H]2Cn3cc(C(=O)NCc4ccc(F)cc4F)c(=O)c([O-])c3C(=O)N12.[Na+] [Form Hy1B, sodium (4R,12aS)-9-((2,4-difluorobenzyl)carbamoyl)-4-methyl-6,8-dioxo-3,4,6,8,12,12a-hexahydro-2H-pyrido[1′,2′:4,5]pyrazino[2,1-b][1,3]oxazin-7-olate]	–	–	–	–	–	–	–	–	absence of a significant hysteresis; also recorded: no significant hysterises	+4.8%	+2.4%	–	hygroscopicity [4]: significantly less hygroscopic than the monohydrate of WO 2010/068253 A1; mol of water per mol of dolutegravir sodium ([4]; 90% RH): 1.3 mol of water per mol of dolutegravir sodium
C[C@@H]1CCO[C@H]2Cn3cc(C(=O)NCc4ccc(F)cc4F)c(=O)c([O-])c3C(=O)N12.[Na+] [MH of WO 2010/068253, reference compound]	–	–	–	–	–	–	–	–	–	+14.0%	+10.7%	stable at 30-60% RH,	Remarks: dehydration below [4]: dehydration below 30% RH,; Remarks: hysteresis at (RH range) [4]: hysterises at 40-95% RH; Remarks: dehydration below [4, 5]: Below 30 % RH; hygroscopicity [4, 5]: very hygroscopic; maximum water content [4, 6]: about 21.8%; mol of water per mol of dolutegravir sodium [4, 6]: 5.6 mol of water per mol of dolutegravir sodium
C[C@@H]1CCO[C@H]2Cn3cc(C(=O)NCc4ccc(F)cc4F)c(=O)c([O-])c3C(=O)N12.[Na+] [Form HxA, sodium (4R,12aS)-9-((2,4-difluorobenzyl)carbamoyl)-4-methyl-6,8-dioxo-3,4,6,8,12,12a-hexahydro-2H-pyrido[1′,2′:4,5]pyrazino[2,1-b][1,3]oxazin-7-olate]	thin-plate like morphology	4.02 mL/g and 2.88 mL/g and 3.30 mL/g and 2.89 mL/g	2.86 mL/g and 2.14 mL/g and 2.60 mL/g and 2.25 mL/g	29% and 26% and 21% and 22%	Poor and Passable	1.3	3.1	7.4	no significant hysterises	+3.4%	+2.5%	stable at 0-95% RH	Remarks: structural changes [4]: no structural changes observed; Remarks: hysteresis between sorption and desorption isotherms ([4]; listed as form HxA): absence of a hysteresis; hygroscopicity ([4]; listed as form HxA): significantly less hygroscopic than the monohydrate of WO 2010/068253 A1; maximum water content ([4]; 95% RH): about 3.8%; mol of water per mol of dolutegravir sodium ([4]; 95% RH): 0.9 mol of water per mol of dolutegravir sodium; maximum water content ([4]; 95% RH, listed as form HxA): 3.9%; mol of water per mol of dolutegravir sodium ([4]; about 30% RH): 0.2 mol of water per mol of dolutegravir sodium; water content ([4]; about 30% RH): about 0.9%; mol of water per mol of dolutegravir sodium ([4]; about 70% RH): 0.7 mol of water per mol of dolutegravir sodium; particle sizes (primary particles) [1]: about 5 μm; morphology of particles ([1]; listed as HxA form): thin-plate like morphology; Compressibility index ([2]; listed as HxA form): 22-29%; Flow character according to PhEur ([2]; listed as HxA form): “poor” to “passable”; Particle size ([3]; achieved with crystallization only): below 10 μm
